Key:
Format in all cases: cell-based
PBMCs [1] = assay: IL-2 and IFN gamma release in CD3/CD28 stimulated PBMC cells; settings: Homo sapiens, assay (c)
Description: PBMCs from healthy subjects are separated from whole blood using a density gradient (Lymphoprep, Axis-Shield Healthcare). Cells are added to a 96 well plate pre-coated with a mixture of CD3/CD28 monoclonal antibodies (0.3 μg/mL eBioscience and 3 μg/mL BD Pharmingen respectively). Compound at the desired concentration is then added to the wells and the plate left for 3 days under normal tissue culture conditions. […] The IC50 is determined from the dose response curve.

PBMCs [2] = assay: LPS-induced TNFα/IL-8 release in PBMC cells; settings: Homo sapiens, assay (b), read-out: IC50 Values for Inhibition of Cytokine Release PBMCs IL-8
Method in brief: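 Healthy-donor PBMCs isolated by density gradient were pretreated with compound for 2 h, then stimulated with 1 ng/mL LPS (E. coli 0111:B4) for 24 h at 37° C., 5% CO2. IL-8 and TNFα in supernatants measured by sandwich ELISA.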

PBMCs [3] = assay: Cell mitosis assay in PBMCs; settings: Homo sapiens, PBMC, 5 μg/mL
Description: Peripheral blood mononucleocytes (PBMCs) from healthy subjects are separated from whole blood (Quintiles, London, UK) using a density gradient (Histopaque®-1077, Sigma-Aldrich, Poole, UK). The PBMCs (3 million cells per sample) are subsequently treated with 2% PHA (phytohaemagglutinin, Sigma-Aldrich, Poole, UK) for 48 hr, followed by a 20 hr exposure to varying concentrations of test compounds. At 2 hr before collection, PBMCs are treated with demecolcine (0.1 μg/mL; Invitrogen, Paisley, UK) to arrest cells in metaphase. To observe mitotic cells, PBMCs are permeabilised and fixed by adding Intraprep (50 μL; Beckman Coulter, France), and stained with anti-phospho-histone 3 (0.26 ng/L; #9701; Cell Signalling, Danvers, Mass.) and propidium iodide (1 mg/mL; Sigma-Aldrich, Poole, UK) as previously described (Muehlbauer P. A. and Schuler M. J., Mutation Research, 2003, 537:117-130). Fluorescence is observed using an ATTUNE flow cytometer (Invitrogen, Paisley, UK), gating for lymphocytes.

[4] = read-out: IC50 Values for Inhibition of Cytokine Release PBMCs IFNγ
[5] = read-out: IC50 Values for Inhibition of Cytokine Release PBMCs IL-2

SMILES	IC50 (PBMCs [1]; [4])	IC50 (PBMCs [1]; [5])	IC50 (PBMCs [2])	inhibition at 5 µg/mL (PBMCs [3])
COc1cc(Nc2cc(Oc3ccc(NC(=O)Nc4cc(C(C)(C)C)cc(NS(C)(=O)=O)c4OC)c4ccccc34)ccn2)cc(C(=O)NCC(=O)N2CCOCC2)c1 [85(a), 3-[[4-[[4-[[5-tert-Butyl-3-(methanesulfonamido)-2-methoxyphenyl]-carbamoylamino]-1-naphthyl]oxy]-2-pyridyl]amino]-5-methoxy-N-(2-morpholino-2-oxo-ethyl)benzamide]	11.8 nM	53.8 nM	0.8 nM	46.3%
C#Cc1cc(Nc2cc(Oc3ccc(NC(=O)Nc4cc(C(C)(C)C)cc(CO)c4OC)c4ccccc34)ccn2)cc(C(=O)NCCOCCOCCOC)c1 [85(b), 3-[[4-[[4-[[5-tert-Butyl-3-(hydroxymethyl)-2-methoxyphenyl]-carbamoylamino]-1-naphthyl]oxy]-2-pyridyl]amino]-5-ethynyl-N-[2-[2-(2-methoxyethoxy)ethoxy]ethyl]benzamide]	16.2 nM	123 nM	1.5 nM	25.3%
C#Cc1cc(Nc2cc(Oc3ccc(NC(=O)Nc4cc(C(C)(C)C)cc(NS(C)(=O)=O)c4OC)c4ccccc34)ccn2)cc(C(=O)NCCCN2CCOCC2)c1 [85(d), 3-[[4-[[4-[[5-tert-Butyl-3-(methanesulfonamido)-2-methoxyphenyl]-carbamoylamino]-1-naphthyl]oxy]-2-pyridyl]amino]-5-ethynyl-N-(3-morpholinopropyl)-benzamide]	15.4 nM	94.3 nM	2.1 nM	33.2%
COc1cc(Nc2cc(Oc3ccc(NC(=O)Nc4cc(C(C)(C)C)cc(NS(C)(=O)=O)c4OC)c4ccccc34)ccn2)cc(C(=O)NCC(C)(C)N2CCOCC2)c1 [85(h), 3-[[4-[[4-[[5-tert-Butyl-3-(methanesulfonamido)-2-methoxyphenyl]-carbamoylamino]-1-naphthyl]oxy]-2-pyridyl]amino]-5-methoxy-N-(2-methyl-2-morpholinopropyl)benzamide]	23 nM	150 nM	2.2 nM	27.5%
COc1cc(Nc2cc(Oc3ccc(NC(=O)Nc4cc(C(C)(C)C)cc(NS(C)(=O)=O)c4OC)c4ccccc34)ccn2)cc(C(=O)NCCN2CCS(=O)(=O)CC2)c1 [85(k), 3-[[4-[[4-[[5-tert-Butyl-3-(methanesulfonamido)-2-methoxyphenyl]-carbamoylamino]-1-naphthyl]oxy]-2-pyridyl]amino]-N-[2-(1,1-dioxo-1,4-thiazinan-4-yl)ethyl]-5-methoxybenzamide]	9.3 nM	57.1 nM	1.7 nM	41%
C#Cc1cc(Nc2nccc(Oc3ccc(NC(=O)Nc4cc(C(C)(C)C)cc(NS(C)(=O)=O)c4OC)c4ccccc34)n2)cc(C(=O)NCCN2CCOCC2)c1 [Example 1, 3-((4-((4-(3-(5-(tert-Butyl)-2-methoxy-3-(methylsulfonamido)phenyl)ureido)naphthalen-1-yl)oxy)pyrimidin-2-yl)amino)-5-ethynyl-N-(2-morpholinoethyl)benzamide]	10.4 nM	112 nM	1.4 nM	22.1%
C#Cc1cc(Nc2nccc(Oc3ccc(NC(=O)Nc4cc(F)cc(N5CCOCC5)c4)c4ccccc34)n2)cc(C(=O)NCCN2CCOCC2)c1 [Example 2, 3-Ethynyl-5-((4-((4-(3-(3-fluoro-5-morpholinophenyl)ureido)naphthalen-1-yl)oxy)-pyrimidin-2-yl)amino)-N-(2-morpholinoethyl)benzamide]	35.7 nM	–	142 nM	4%
COc1cc(Nc2nccc(Oc3ccc(NC(=O)Nc4cc(C(C)(C)C)cc(NS(C)(=O)=O)c4OC)c4ccccc34)n2)cc(C(=O)NCCN2CCOCC2)c1 [Example 6, 3-((4-((4-(3-(5-(tert-Butyl)-2-methoxy-3-(methylsulfonamido)phenyl)ureido)naphthalen-1-yl)oxy)pyrimidin-2-yl)amino)-5-methoxy-N-(2-morpholinoethyl)benzamide]	9.3 nM	89.9 nM	0.8 nM	41.7%
CNC(=O)c1cc(C(C)(C)C)cc(NC(=O)Nc2ccc(Oc3ccnc(Nc4cc(OC)cc(OCCOCCOCCOC)c4)n3)c3ccccc23)c1OC [Example 13, 5-(tert-Butyl)-2-methoxy-3-(3-(4-((2-((3-methoxy-5-(2-(2-(2-methoxyethoxy)ethoxy)-ethoxy)phenyl)amino)pyrimidin-4-yl)oxy)naphthalen-1-yl)ureido)-N-methylbenzamide]	4.6 nM	57.4 nM	1.3 nM	46.1%
COCCOCCOCCOc1cc(Nc2nccc(Oc3ccc(NC(=O)Nc4cc(C(C)(C)C)cc(C(N)=O)c4OC)c4ccccc34)n2)cc(OC)c1 [Example 20, 5-(tert-Butyl)-2-methoxy-3-(3-(4-((2-((3-methoxy-5-(2-(2-(2-methoxyethoxy)ethoxy)-ethoxy)phenyl)amino)pyrimidin-4-yl)oxy)naphthalen-1-yl)ureido)benzamide]	9 nM	84.3 nM	1.1 nM	44.3%
COCCOCCOCCOc1cc(Nc2nccc(Oc3ccc(NC(=O)Nc4cc(NS(C)(=O)=O)cc(C(C)(C)C)c4)c4ccccc34)n2)cc(OC)c1 [Example 24, N-(3-(tert-Butyl)-5-(3-(4-((2-((3-methoxy-5-(2-(2-(2-methoxyethoxy)ethoxy)ethoxy)-phenyl)amino)pyrimidin-4-yl)oxy)naphthalen-1-yl)ureido)phenyl)methanesulfonamide]	10.7 nM	24.9 nM	1.9 nM	22.5%
COCCOCCOCCOc1cc(Nc2nccc(Oc3ccc(NC(=O)Nc4cc(C(C)(C)C)cc(C(=O)NCCO)c4OC)c4ccccc34)n2)cc(OC)c1 [Example 35, 5-(tert-Butyl)-N-(2-hydroxyethyl)-2-methoxy-3-(3-(4-((2-((3-methoxy-5-(2-(2-(2-methoxy-ethoxy)ethoxy)ethoxy)phenyl)amino)pyrimidin-4-yl)oxy)naphthalen-1-yl)ureido)-benzamide]	3.5 nM	51 nM	1.4 nM	41.1%
COCCOCCOCCOc1cc(Nc2nccc(Oc3ccc(NC(=O)Nc4cc(C(C)(C)C)cc(C(=O)NCCN(C)C)c4OC)c4ccccc34)n2)cc(OC)c1 [Example 46, 5-(tert-Butyl)-N-(2-(dimethylamino)ethyl)-2-methoxy-3-(3-(4-((2-((3-methoxy-5-(2-(2-(2-methoxyethoxy)ethoxy)ethoxy)phenyl)amino)pyrimidin-4-yl)oxy)naphthalen-1-yl)ureido)-benzamide]	2 nM	–	0.9 nM	67.1%
COc1cc(Nc2cc(Oc3ccc(NC(=O)Nc4cc(C(C)(C)C)cc(C(N)=O)c4OC)c4ccccc34)ccn2)cc(C(=O)NCCN2CCOCC2)c1 [Example 47, 3-((4-((4-(3-(5-(tert-Butyl)-3-carbamoyl-2-methoxyphenyl)ureido)naphthalen-1-yl)oxy)pyridin-2-yl)amino)-5-methoxy-N-(2-morpholinoethyl)benzamide]	7.3 nM	102 nM	1.6 nM	59.1%
C#Cc1cc(Nc2cc(Oc3ccc(NC(=O)Nc4cc(C(C)(C)C)cc(NS(C)(=O)=O)c4OC)c4ccccc34)ccn2)cc(C(=O)NCCOCCOCCOC)c1 [Example 54, 3-((4-((4-(3-(5-(tert-Butyl)-2-methoxy-3-(methylsulfonamido)phenyl)ureido)naphthalen-1-yl)oxy)pyridin-2-yl)amino)-5-ethynyl-N-(2-(2-(2-methoxyethoxy)ethoxy)ethyl)benzamide]	33.3 nM	354 nM	1.6 nM	37.8%
COCCOCCOCCOc1cc(Nc2nccc(Oc3ccc(NC(=O)Nc4cc(C(C)(C)C)cc(-c5nnco5)c4OC)c4ccccc34)n2)cc(OC)c1 [Example 59, 1-(5-(tert-Butyl)-2-methoxy-3-(1,3,4-oxadiazol-2-yl)phenyl)-3-(4-((2-((3-methoxy-5-(2-(2-(2-methoxyethoxy)ethoxy)ethoxy)phenyl)amino)pyrimidin-4-yl)oxy)naphthalen-1-yl)urea]	7.6 nM	58.6 nM	3.3 nM	55.3%
C#Cc1cc(Nc2cc(Oc3ccc(NC(=O)Nc4cc(C(C)(C)C)cc(NS(C)(=O)=O)c4OC)c4ccccc34)ccn2)cc(C(=O)N[C@@H](C)COCCOCCOC)c1 [Example 67, (S)-3-((4-((4-(3-(5-(tert-Butyl)-2-methoxy-3-(methylsulfonamido)phenyl)ureido)-naphthalen-1-yl)oxy)pyridin-2-yl)amino)-5-ethynyl-N-(1-(2-(2-methoxyethoxy)ethoxy)-propan-2-yl)benzamide]	39.5 nM	200 nM	2.7 nM	35.6%
